Each block holds one molecule with its values, some of them ahead of it.
Columns and labels:
[1] = Inhibition of Plasmodium falciparum recombinant falcipain-2 incubated for 30 mins at room temperature before addition of substrate benzoxycarbonyl-Leu-Arg-7-amino-4-methyl-coumarin by spectrofluorometry
[2] = Inhibition of Plasmodium chabaudi recombinant chabaupain expressed in Escherichia coli
[3] = system: Plasmodium falciparum; test: Antiplasmodial activity against chloroquine-resistant Plasmodium falciparum W2 synchronized ring stage parasites infected in erythrocytes assessed as reduction in parasitemia after 48 hrs by Giemsa staining; format: functional, organism-based; conditions: W2, 48 h
[4] = system: Plasmodium falciparum; test: Antiplasmodial activity against atovaquone-resistant Plasmodium falciparum FCR3; format: functional, organism-based
[5] = system: Plasmodium falciparum; test: Antiplasmodial activity against chloroquine and pyrimethamine-resistant Plasmodium falciparum V1/S; format: functional, organism-based
[6] = system: Plasmodium falciparum; test: Antiplasmodial activity against chloroquine-sensitive Plasmodium falciparum 3D7; format: functional, organism-based
[7] = system: Plasmodium falciparum; test: Antiplasmodial activity against chloroquine-sensitive and mefloquine-resistant Plasmodium falciparum D6; format: functional, organism-based
[8] = system: Plasmodium falciparum; test: Antiplasmodial activity against Plasmodium falciparum Itg2 synchronized ring stage parasites infected in erythrocytes assessed as reduction in parasitemia after 48 hrs by Giemsa staining; format: functional, organism-based; conditions: Itg2, 48 h
[9] = Inhibition of falcipain-2 in Plasmodium falciparum trophozoite extracts incubated for 30 mins at room temperature before addition of substrate benzyloxycarbonyl-Phe-Arg-7-amino-4-methyl-coumarin by spectrofluorometry

Structure (SMILES): CC(C)C[C@H](NC(=O)c1ccc(CO[C@H]2O[C@@H]3O[C@@]4(C)CC[C@H]5[C@H](C)CC[C@@H]([C@H]2C)[C@@]35OO4)cc1)C(=O)N[C@H](/C=C/S(=O)(=O)c1ccccc1)CCc1ccccc1
IC50 [1]: 4950 nM
IC50 [2]: 2290 nM
IC50 [3]: 2.08 nM

Structure (SMILES): C[C@H]1[C@@H](OCc2ccc(C(=O)NCC(=O)N[C@H](/C=C/S(=O)(=O)c3ccccc3)Cc3ccccc3)cc2)O[C@@H]2O[C@@]3(C)CC[C@H]4[C@H](C)CC[C@@H]1[C@@]24OO3
IC50 [4]: 1.75 nM
IC50 [5]: 1.59 nM
IC50 [1]: 16500 nM
IC50 [2]: 56800 nM
IC50 [6]: 3.11 nM
IC50 [7]: 4.71 nM
IC50 [3]: 4.09 nM

Structure (SMILES): C[C@H]1[C@@H](OCc2ccc(C(=O)N[C@@H](Cc3ccccc3)C(=O)N[C@H](/C=C/S(=O)(=O)c3ccccc3)Cc3ccccc3)cc2)O[C@@H]2O[C@@]3(C)CC[C@H]4[C@H](C)CC[C@@H]1[C@@]24OO3
IC50 [1]: 22400 nM
IC50 [2]: 400 nM
IC50 [3]: 2.27 nM

Structure (SMILES): C[C@H]1[C@@H](OCc2ccc(C(=O)N[C@@H](Cc3ccccc3)C(=O)N[C@H](/C=C/S(=O)(=O)c3ccccc3)CCc3ccccc3)cc2)O[C@@H]2O[C@@]3(C)CC[C@H]4[C@H](C)CC[C@@H]1[C@@]24OO3
IC50 [1]: 9220 nM
IC50 [2]: 538 nM
IC50 [3]: 3.94 nM

Structure (SMILES): C[C@H]1[C@@H](OCc2ccc(C(=O)N[C@@H](Cc3ccccc3)C(=O)N[C@H](/C=C/S(C)(=O)=O)CCc3ccccc3)cc2)O[C@@H]2O[C@@]3(C)CC[C@H]4[C@H](C)CC[C@@H]1[C@@]24OO3
IC50 [4]: 2 nM
IC50 [5]: 2.25 nM
IC50 [1]: 21600 nM
IC50 [6]: 2.5 nM
IC50 [3]: 4.81 nM

Structure (SMILES): CC(C)C[C@H](NC(=O)c1ccc(CO[C@H]2O[C@@H]3O[C@@]4(C)CC[C@H]5[C@H](C)CC[C@@H]([C@H]2C)[C@@]35OO4)cc1)C(=O)N[C@H](/C=C/S(C)(=O)=O)CCc1ccccc1
IC50 [4]: 1.89 nM
IC50 [5]: 1.65 nM
IC50 [1]: 350 nM
IC50 [6]: 2.48 nM
IC50 [7]: 4.96 nM
IC50 [3]: 4.21 nM

Structure (SMILES): CC(C)C[C@H](NC(=O)OC(C)(C)C)C(=O)N[C@H](/C=C/S(=O)(=O)c1ccccc1)CCc1ccccc1
IC50 [1]: 210 nM
IC50 [3]: > 10000 nM

IC50 [8]: 22 nM
IC50 [9]: 3 nM
Structure (SMILES): CC(C)C[C@H](NC(=O)N1CCOCC1)C(=O)N[C@H](/C=C/S(=O)(=O)c1ccccc1)CCc1ccccc1

Structure (SMILES): C[C@@H]1[C@H](OCc2ccc(C(=O)O)cc2)O[C@@H]2O[C@@]3(C)CC[C@@H]4[C@@H](C)CC[C@@H]1[C@]24OO3 (stereo in doubt) [ARTELINIC ACID]
IC50 [3]: 5.66 nM

Structure (SMILES): C[C@@H]1CC[C@H]2[C@@H](C)C(=O)O[C@@H]3O[C@@]4(C)CC[C@@H]1[C@]32OO4 [ARTEMISININ]
IC50 [4]: 5.38 nM
IC50 [5]: 4.24 nM
IC50 [6]: 9.71 nM
IC50 [3]: 12 nM

Structure (SMILES): CC(C)C[C@H](NC(=O)[C@H]1O[C@@H]1C(=O)O)C(=O)NCCCCN=C(N)N [E-64]
IC50 [1]: 84 nM
IC50 [2]: 9 nM

Source: ChEMBL document CHEMBL1782052, “Artemisinin-dipeptidyl vinyl sulfone hybrid molecules: design, synthesis and preliminary SAR for antiplasmodial activity and falcipain-2 inhibition” (Bioorg Med Chem Lett, 2009)
